Assay [1] relates to transglutaminase. Conditions: as amine acceptor; Parameswaran, Velasco et al. 1990; cited from earlier work.
Assay [2] has as its target T1, guinea pig liver tissue transglutaminase (UniProt P08587).
T1 construct: guinea pig liver tissue transglutaminase (Sigma); purchased Sigma; host or cells: guinea pig liver (as named)
T1 sequence (P08587 1-690): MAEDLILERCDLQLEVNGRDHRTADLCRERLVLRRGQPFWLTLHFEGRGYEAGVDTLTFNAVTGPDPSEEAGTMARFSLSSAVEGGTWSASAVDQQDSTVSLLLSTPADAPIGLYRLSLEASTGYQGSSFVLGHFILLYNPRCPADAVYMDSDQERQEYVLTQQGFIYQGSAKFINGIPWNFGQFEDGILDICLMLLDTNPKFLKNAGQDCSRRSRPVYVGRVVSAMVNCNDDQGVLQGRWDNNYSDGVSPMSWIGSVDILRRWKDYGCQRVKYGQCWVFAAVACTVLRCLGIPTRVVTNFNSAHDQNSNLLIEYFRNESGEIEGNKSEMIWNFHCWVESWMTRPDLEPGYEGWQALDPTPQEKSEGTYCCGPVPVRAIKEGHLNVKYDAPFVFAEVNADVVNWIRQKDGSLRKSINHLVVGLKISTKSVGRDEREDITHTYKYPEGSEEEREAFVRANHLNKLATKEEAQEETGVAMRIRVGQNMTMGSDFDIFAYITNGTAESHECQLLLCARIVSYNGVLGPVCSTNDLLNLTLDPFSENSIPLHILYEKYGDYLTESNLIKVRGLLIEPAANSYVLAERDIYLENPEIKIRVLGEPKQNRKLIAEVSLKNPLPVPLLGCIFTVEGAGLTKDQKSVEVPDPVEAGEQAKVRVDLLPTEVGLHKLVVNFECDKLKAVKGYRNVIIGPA
Nature of the assay: Onchip in vitro TG2 assay (dansyl-cadaverine incorporation on peptide microchip). It counts as biochemical. Conditions: 100 μg/ml TG2, 3 mM dansyl-cadaverine, 5 mM Calcium Chloride, 37 degree, 30 minutes; anti-dansyl antibody/Alexa Fluor 594 readout. The procedure: To identify the glutamine residues that can be modified by tissue transglutaminase on the peptide microchip, the synthesized peptide microchip was incubated with 100 μg/ml guinea pig liver tissue transglutaminase (Sigma) and 3 mM dansyl-cadaverine (Sigma) in 1 ml of TBS containing 5 mM Calcium Chloride and 1 mM DTT at 37 degree for 30 minutes. Afterwards, the peptide chip was washed at least 3 times with TBS. After washing off tissue transglutaminase and dansyl-cadaverine molecules […] the synthesized peptides, the dansyl-cadaverine conjugated on the chip was tracked by rabbit anti-dansyl antibody (Invitrogen) followed by Alexa Fluor 594-labeled anti-rabbit secondary antibody (Invitrogen). Fluorescent microchip figures were quantified and analyzed with ArrayPro32. Original array figures and data are available upon request.
To characterize the glutamine-bearing TG2 modification motifs on these synthesized peptides, dansyl-cadaverine, a well-established amine donor in transglutaminase reaction, was covalently conjugated to the glutamine residues on the peptide chip by purified TG2 with the help of calcium (FIG. 1A). […] In this way the level of dansyl-cadaverine incorporation on a certain peptide was measured by the fluorescent intensity. […]

For QQIV, the “competitive inhibitor for the transglutaminase reaction” value in assay [1] is “effective competitive inhibitor”. The “fluorescent intensity (level of dansyl-cadaverine incorporation)” value in assay [2] is reported as roughly 5000.

The values above are taken from patent US20250067753A1, “Protein array-based in vitro transglutaminase assay platform for epitope mapping and immunogen design” (priority 2021, published 2025).
